Laboratory results published in ChEMBL document CHEMBL6127154, “Pursuing Polypharmacology: Benzothiopyranoindoles as G-Quadruplex Stabilizers and Topoisomerase I Inhibitors for Effective Anticancer Strategies” (ACS Med Chem Lett, 2024).
The source made the active and inactive calls. No cut-off for these calls is given here.

How the values were obtained:
[1] = test system: K562; assay: Antiproliferative activity against human K562 cells assessed as growth inhibition incubated for 48 hrs by SRB assay; assay type: functional
[2] = test system: UO-31; assay: Antiproliferative activity against human UO-31 cells assessed as growth inhibition incubated for 48 hrs by SRB assay; assay type: functional
[3] = molecular target: Quadruplex DNA; assay: Binding affinity to human parallel c-Kit2 G4 quadruplex DNA assessed as dissociation constant by MST analysis; assay type: nucleic-acid assay
[4] = test system: DU-145; assay: Antiproliferative activity against human DU-145 cells assessed as growth inhibition incubated for 48 hrs by SRB assay; assay type: functional
[5] = test system: Quadruplex DNA; assay: Thermal stabilization of human Tel23-hy G4 quadruplex DNA assessed as change in melting temperature (deltaT1/2) incubated for 10 mins by circular dichroism spectroscopic analysis (reference value: 48 +/- 0.1 degreeC); assay type: nucleic-acid assay
[6] = test system: Quadruplex DNA; assay: Thermal stabilization of FAM labeled human Tel21T G4 quadruplex DNA assessed as change in melting temperature (deltaT1/2) in presence of unlabeled duplex competitor (ds26) by FRET assay; assay type: nucleic-acid assay
[7] = test system: Quadruplex DNA; assay: Thermal stabilization of FAM labeled human Tel21T G4 quadruplex DNA assessed as change in melting temperature (deltaT1/2) in presence of 15 uM unlabeled duplex competitor (ds26) by FRET assay; assay type: nucleic-acid assay
[8] = test system: A549; assay: Antiproliferative activity against human A549 cells assessed as growth inhibition incubated for 48 hrs by SRB assay; assay type: functional
[9] = molecular target: dsDNA; assay: Binding affinity to human […] Tel26-hy DNA assessed as dissociation constant by MST analysis; assay type: nucleic-acid assay
[10] = test system: RXF 393; assay: Antiproliferative activity against human RXF 393 cells assessed as growth inhibition incubated for 48 hrs by SRB assay; assay type: functional
[11] = test system: Quadruplex DNA; assay: Thermal stabilization of FAM labeled human Tel21T G4 quadruplex DNA assessed as change in melting temperature (deltaT1/2) in presence of 50 uM unlabeled duplex competitor (ds26) by FRET assay; assay type: nucleic-acid assay
[12] = test system: SW-620; assay: Antiproliferative activity against human SW620 cells assessed as growth inhibition incubated for 48 hrs by SRB assay; assay type: functional
[13] = molecular target: Quadruplex DNA; assay: Binding affinity to human hybrid c-Myc G4 quadruplex DNA assessed as dissociation constant by MST analysis; assay type: nucleic-acid assay
[14] = test system: Quadruplex DNA; assay: Thermal stabilization of human c-Kit2 G4 quadruplex DNA assessed as change in melting temperature (deltaT1/2) incubated for 10 mins by circular dichroism spectroscopic analysis (reference value: 62.4 +/-0.1 degreeC); assay type: nucleic-acid assay
[15] = test system: Quadruplex DNA; assay: Thermal stabilization of human Tel26-hy G4 quadruplex DNA assessed as change in melting temperature (deltaT1/2) incubated for 10 mins by circular dichroism spectroscopic analysis (reference value: 55.4 +/- 0.1 degreeC); assay type: nucleic-acid assay
[16] = test system: SF-539; assay: Antiproliferative activity against human SF-539 cells assessed as growth inhibition incubated for 48 hrs by SRB assay; assay type: functional
[17] = test system: SK-MEL-28; assay: Antiproliferative activity against human SK-MEL-28 cells assessed as growth inhibition incubated for 48 hrs by SRB assay; assay type: functional
[18] = test system: NCI-H522; assay: Antiproliferative activity against human NCI-H522 cells assessed as growth inhibition incubated for 48 hrs by SRB assay; assay type: functional
[19] = test system: SK-OV-3; assay: Antiproliferative activity against human SK-OV-3 cells assessed as growth inhibition incubated for 48 hrs by SRB assay; assay type: functional
[20] = test system: M14; assay: Antiproliferative activity against human M14 cells assessed as growth inhibition incubated for 48 hrs by SRB assay; assay type: functional
[21] = test system: SR; assay: Antiproliferative activity against human SR cells assessed as growth inhibition incubated for 48 hrs by SRB assay; assay type: functional
[22] = test system: CAKI-1; assay: Antiproliferative activity against human CAKI-1 cells assessed as growth inhibition incubated for 48 hrs by SRB assay; assay type: functional
[23] = test system: 786-0; assay: Antiproliferative activity against human 786-0 cells assessed as growth inhibition incubated for 48 hrs by SRB assay; assay type: functional
[24] = test system: SF-295; assay: Antiproliferative activity against human SF-295 cells assessed as growth inhibition incubated for 48 hrs by SRB assay; assay type: functional
[25] = molecular target: dsDNA; assay: Binding affinity to human duplex ds26 DNA assessed as dissociation constant by MST analysis; assay type: nucleic-acid assay
[26] = molecular target: Quadruplex DNA; assay: Binding affinity to human hybrid Tel23 G4 quadruplex DNA assessed as dissociation constant by MST analysis; assay type: nucleic-acid assay
[27] = test system: SN12C; assay: Antiproliferative activity against human SN12C cells assessed as growth inhibition incubated for 48 hrs by SRB assay; assay type: functional
[28] = test system: A498; assay: Antiproliferative activity against human A498 cells assessed as growth inhibition incubated for 48 hrs by SRB assay; assay type: functional
[29] = test system: MDA-MB-468; assay: Antiproliferative activity against human MDA-MB-468 cells assessed as growth inhibition incubated for 48 hrs by SRB assay; assay type: functional
[30] = test system: HCC 2998; assay: Antiproliferative activity against human HCC 2998 cells assessed as growth inhibition incubated for 48 hrs by SRB assay; assay type: functional
[31] = test system: Quadruplex DNA; assay: Stabilization of human telomeric 23 hybrid G4 quadruplex DNA incubated for 10 mins by circular dichroism spectroscopic analysis; assay type: nucleic-acid assay
[32] = test system: CCRF-CEM; assay: Antiproliferative activity against human CCRF-CEM cells assessed as growth inhibition incubated for 48 hrs by SRB assay; assay type: functional
[33] = test system: NCI-H23; assay: Antiproliferative activity against human NCI-H23 cells assessed as growth inhibition incubated for 48 hrs by SRB assay; assay type: functional

| SMILES | GI [1] [µM] | GI [2] [µM] | GI [4] [µM] | ΔTm [5] [°C] | GI [8] [µM] | GI [10] [µM] | GI [12] [µM] | ΔTm [14] [°C] | ΔTm [15] [°C] | GI [16] [µM] | GI [17] [µM] | GI [19] [µM] | GI [20] [µM] | GI [21] [µM] | GI [22] [µM] | GI [23] [µM] | GI [24] [µM] | GI [27] [µM] | GI [28] [µM] | GI [29] [µM] | further results |
| --- | --- | --- | --- | --- | --- | --- | --- | --- | --- | --- | --- | --- | --- | --- | --- | --- | --- | --- | --- | --- | --- |
| CCN(CC)CCn1c2ccc(OC)cc2c2sc3cc(OC)ccc3c(=O)c21 | 0.728 | 1.35 | 1.67 | 11 | 1.59 | 1.4 | 0.825 | > 20 | 10.4 | 1.66 | 1.7 | 3.07 | 1.64 | 0.704 | 1.65 | 1.59 | 1.82 | 2.03 | 1.12 | 1.56 | Kd [3]: 300 nM; ΔTm [6]: 12.6 °C; ΔTm [7]: 1.9 °C; Kd [9]: 23 µM; ΔTm [11]: 1.6 °C; Kd [13]: 2100 nM; GI [18]: 1.71 µM; Kd [25]: 1300 nM; Kd [26]: 9 µM; GI [30]: 1.48 µM; Activity [31]: Active; GI [32]: 1.04 µM; GI [33]: 1.9 µM |
| CCN(CC)CCn1c2ccc(O)cc2c2sc3cc(OC)ccc3c(=O)c21 | 1.24 | 1.9 | 1.71 | 9.6 | 1.63 | 1.31 | 0.675 | > 20 | 7.5 | 1.76 | 1.8 | 13.4 | 1.64 | 1.11 | 3.73 | 1.39 | 5.35 | 5.83 | 3.08 | 1.54 | GI [30]: 1.47 µM; Activity [31]: Active; GI [32]: 1.09 µM; GI [33]: 1.56 µM |
